Data as given in ChEMBL document CHEMBL1201862, “PubChem BioAssay data set” (2004).
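Assay format: 96-well plates, 48-hour exposure. Here, GI50 denotes the concentration required for 50% inhibition of growth.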 Activity calls are given as the source filed them. Cut-off read from the data, not from the text of the source: active = GI50 up to about 1.1 µM and inactive = higher.

How the values were obtained:
Assay in all cases: NCI-60 cell line screen, 48 h
K562 = system: K562
HT-29 = system: HT-29
MOLT-4 = system: MOLT-4
MDA-MB-231 = system: MDA-MB-231
A498 = system: A498
HCT-116 = system: HCT-116
U-251 = system: U-251
NCI-H460 = system: NCI-H460
Hs-578T = system: Hs-578T
ACHN = system: ACHN
HOP-62 = system: HOP-62
COLO 205 = system: COLO 205
OVCAR-8 = system: OVCAR-8
A549 = system: A549
DU-145 = system: DU-145
RPMI-8226 = system: RPMI-8226
Malme-3M = system: Malme-3M
SF-268 = system: SF-268
UACC-62 = system: UACC-62
T47D = system: T47D

Row | Compound | GI50 (K562) | GI50 (HT-29) | GI50 (MOLT-4) | GI50 (MDA-MB-231) | GI50 (A498) | GI50 (HCT-116) | GI50 (U-251) | GI50 (NCI-H460) | GI50 (Hs-578T) | GI50 (ACHN) | GI50 (HOP-62) | GI50 (COLO 205) | GI50 (OVCAR-8) | GI50 (A549) | GI50 (DU-145) | GI50 (RPMI-8226) | GI50 (Malme-3M) | GI50 (SF-268) | GI50 (UACC-62) | GI50 (T47D)
1 | COc1cc(C(=O)c2cocc2C(=O)c2ccc3c(c2)OCO3)cc(OC)c1OC | 0.151 µM (active) | 0.244 µM (active) | 0.991 µM (active) | 2.65 µM (inactive) | 4.05 µM (inactive) | 0.333 µM (active) | 0.537 µM (active) | 0.658 µM (active) | 0.274 µM (active) | 0.977 µM (active) | 1 µM (active) | 4.91 µM (inactive) | 1.35 µM (inactive) | 5.26 µM (inactive) | 1.17 µM (inactive) | 0.628 µM (active) | 0.312 µM (active) | 0.802 µM (active) | 0.311 µM (active) | 
2 | O=[N+]([O-])c1ccc2[nH]c(-c3ccc(Cl)cc3)nc2c1 |  | 18.5 µM (inactive) | 25.4 µM (inactive) | 15.5 µM (inactive) |  | 17.3 µM (inactive) |  | 19.5 µM (inactive) | 25.5 µM (inactive) | 26.8 µM (inactive) | 21.5 µM (inactive) | 16.7 µM (inactive) | 30.1 µM (inactive) | 20.8 µM (inactive) | 25.2 µM (inactive) | 23.2 µM (inactive) | 28.4 µM (inactive) | 19 µM (inactive) | 21.2 µM (inactive) | 24.6 µM (inactive)
3 | O=C(O)c1ccccc1C1c2ccccc2Oc2ccccc21 | 75.2 µM (inactive) | 74.6 µM (inactive) | 38.9 µM (inactive) | > 100 µM (inactive) | 27.7 µM (inactive) | 45.3 µM (inactive) | 35.2 µM (inactive) | 39.9 µM (inactive) |  | 34.6 µM (inactive) | 41.3 µM (inactive) |  | 96.6 µM (inactive) | 48.6 µM (inactive) | 46.7 µM (inactive) | 54.6 µM (inactive) | 26.7 µM (inactive) | 28.8 µM (inactive) | 25.8 µM (inactive) | 71.9 µM (inactive)
4 | CCOP(=O)(OCC)/C(C#N)=C/c1coc2cc(C)cc(C)c2c1=O | > 100 µM (inactive) | > 100 µM (inactive) | > 100 µM (inactive) | > 100 µM (inactive) | > 100 µM (inactive) | > 100 µM (inactive) | > 100 µM (inactive) | > 100 µM (inactive) | > 100 µM (inactive) | > 100 µM (inactive) | > 100 µM (inactive) | > 100 µM (inactive) | > 100 µM (inactive) | > 100 µM (inactive) | > 100 µM (inactive) | > 100 µM (inactive) | > 100 µM (inactive) | > 100 µM (inactive) | 67 µM (inactive) | 
5 | C[C@H]1[C@H](C)N(Cc2ccccc2)P(=O)(C(O)/C=C/c2ccccc2)N1Cc1ccccc1 (stereo partly specified) | 7.74 µM (inactive) | 5.24 µM (inactive) | 8.73 µM (inactive) | 6.12 µM (inactive) | 5.45 µM (inactive) | 5.21 µM (inactive) | 5.11 µM (inactive) | 3.72 µM (inactive) | 4.79 µM (inactive) | 8.47 µM (inactive) | 8.41 µM (inactive) | 6.64 µM (inactive) | 8.53 µM (inactive) | 8.07 µM (inactive) |  | 6.22 µM (inactive) | 5.58 µM (inactive) | 6.84 µM (inactive) | 4.18 µM (inactive) | 6.27 µM (inactive)
6 | CC(=O)N1C(Nc2ccccc2)CCN1c1ccccc1 (stereo unspecified) | 4.04 µM (inactive) | 5.77 µM (inactive) | 9.77 µM (inactive) | > 10 µM (inactive) |  | > 10 µM (inactive) |  | > 10 µM (inactive) | > 10 µM (inactive) | 4.22 µM (inactive) | > 10 µM (inactive) | > 10 µM (inactive) | > 10 µM (inactive) | > 10 µM (inactive) | > 10 µM (inactive) | > 10 µM (inactive) | 5.38 µM (inactive) | 3.54 µM (inactive) |  | > 10 µM (inactive)
7 | Cc1ccccc1C(=O)c1cc(O)ccc1O | 35 µM (inactive) | 35.9 µM (inactive) | > 100 µM (inactive) |  | > 100 µM (inactive) | > 100 µM (inactive) | 50.7 µM (inactive) | 85.9 µM (inactive) |  | > 100 µM (inactive) | > 100 µM (inactive) | 50.6 µM (inactive) | > 100 µM (inactive) | > 100 µM (inactive) |  | > 100 µM (inactive) | > 100 µM (inactive) | > 100 µM (inactive) | 65 µM (inactive) | 
8 | O=c1oc2ccccc2cc1-c1nnc(-c2ccccc2)s1 | 9.89 µM (inactive) | 10.1 µM (inactive) | 19.1 µM (inactive) | 19.1 µM (inactive) | 15.1 µM (inactive) | 20.3 µM (inactive) | 12.6 µM (inactive) | 28.1 µM (inactive) | > 64.4 µM (inactive) | 32 µM (inactive) | 16.1 µM (inactive) | > 53 µM (inactive) | 22.1 µM (inactive) | 38.5 µM (inactive) | > 100 µM (inactive) | > 55.7 µM (inactive) | > 100 µM (inactive) | > 57.9 µM (inactive) | > 100 µM (inactive) | 
9 | CN(C)C(=S)/N=c1\ss/c(=N\C(=S)N(C)C)n1-c1cccc(Cl)c1 | > 100 µM (inactive) | > 100 µM (inactive) | > 100 µM (inactive) |  | > 100 µM (inactive) | > 100 µM (inactive) | > 100 µM (inactive) | > 100 µM (inactive) |  | > 100 µM (inactive) | > 100 µM (inactive) | > 100 µM (inactive) | > 100 µM (inactive) | > 100 µM (inactive) |  | > 100 µM (inactive) | > 100 µM (inactive) | > 100 µM (inactive) | > 100 µM (inactive) | 
10 | CC1=Nc2c(O)nc(S)nc2NC(c2ccc(Cl)c(Cl)c2)C1 (stereo unspecified) | > 100 µM (inactive) | 24.3 µM (inactive) | > 100 µM (inactive) |  | 18.9 µM (inactive) | 15.8 µM (inactive) | 17.3 µM (inactive) | 67.8 µM (inactive) |  | > 65.2 µM (inactive) | 46.3 µM (inactive) | 18 µM (inactive) | 18.7 µM (inactive) | 21.1 µM (inactive) |  | > 100 µM (inactive) | > 89.7 µM (inactive) | 32.2 µM (inactive) | 29.8 µM (inactive) | 
11 | CC(=O)OCC1OC(n2ncc(=O)[nH]c2=O)C(OC(C)=O)C1OC(C)=O (stereo unspecified) | 0.832 µM (active) | 6.67 µM (inactive) | 1.32 µM (inactive) | > 10 µM (inactive) |  | 1.07 µM (active) | 1.09 µM (active) | 1.17 µM (inactive) | 19.1 µM (inactive) | 4.9 µM (inactive) | 21.7 µM (inactive) | 11.3 µM (inactive) | 14.7 µM (inactive) | 8.97 µM (inactive) | 23 µM (inactive) | > 100 µM (inactive) | > 100 µM (inactive) | 5.33 µM (inactive) | 23.2 µM (inactive) | > 100 µM (inactive)
12 | COC(=O)C1=C(C(=O)OC)C(OO)(c2ccccc2)OC1=O (stereo unspecified) | 52.7 µM (inactive) | 35.9 µM (inactive) | > 100 µM (inactive) | 58.2 µM (inactive) |  | 61.7 µM (inactive) | 37.4 µM (inactive) | 48.6 µM (inactive) |  | > 100 µM (inactive) |  | > 100 µM (inactive) | > 100 µM (inactive) | > 100 µM (inactive) | > 100 µM (inactive) |  | > 100 µM (inactive) |  | 34.2 µM (inactive) | > 100 µM (inactive)
13 | O=C1NC(N2CCCC(CO)C2)=N/C1=C\c1cccs1 (stereo unspecified) | > 100 µM (inactive) | > 100 µM (inactive) | > 100 µM (inactive) | > 100 µM (inactive) |  | > 100 µM (inactive) | > 100 µM (inactive) |  | > 100 µM (inactive) | > 100 µM (inactive) | > 100 µM (inactive) | > 100 µM (inactive) | > 100 µM (inactive) | > 100 µM (inactive) | > 100 µM (inactive) | > 100 µM (inactive) | > 100 µM (inactive) | > 100 µM (inactive) | > 100 µM (inactive) | > 100 µM (inactive)
14 | OCC1C(OCc2ccccc2)C(OCc2ccccc2)C(OCc2ccccc2)CN1Cc1ccccc1 (stereo unspecified) | 16.3 µM (inactive) | 9.62 µM (inactive) | 7.62 µM (inactive) | 21.3 µM (inactive) |  | 17.3 µM (inactive) | 27.3 µM (inactive) | 14.5 µM (inactive) | 24.6 µM (inactive) | 3.38 µM (inactive) | 33 µM (inactive) | 14.3 µM (inactive) | 29.9 µM (inactive) | 18.7 µM (inactive) | > 100 µM (inactive) |  | 27.9 µM (inactive) | 65.5 µM (inactive) | > 100 µM (inactive) | 22.6 µM (inactive)
15 | CCC1(CN(C)C)CC/C(=C\c2ccc(OC)cc2)C1=O (stereo unspecified) | 40.9 µM (inactive) | 44.9 µM (inactive) | 3.14 µM (inactive) |  | 84.1 µM (inactive) | 93.1 µM (inactive) | > 100 µM (inactive) | > 100 µM (inactive) |  | > 100 µM (inactive) | > 100 µM (inactive) | 80.7 µM (inactive) | > 100 µM (inactive) | > 100 µM (inactive) |  | 17.4 µM (inactive) | > 100 µM (inactive) | > 100 µM (inactive) | > 100 µM (inactive) | 
16 | C=CCOn1c(C=C)nc2c(C)cccc21 | 3.57 µM (inactive) | 3.36 µM (inactive) | 3.64 µM (inactive) | 3.83 µM (inactive) | 5.66 µM (inactive) | 2.01 µM (inactive) | 1.98 µM (inactive) | 2.32 µM (inactive) | 4.98 µM (inactive) | 2.62 µM (inactive) | 3.77 µM (inactive) | 1.95 µM (inactive) | 2.85 µM (inactive) | 3.38 µM (inactive) |  | 2.43 µM (inactive) | 11.6 µM (inactive) | 3.89 µM (inactive) | 2.56 µM (inactive) | 1.99 µM (inactive)
